According to patent US11292803B2, “Bioreducible N-oxide-based probes for imaging of hypoxia” (THE BOARD OF TRUSTEES OF THE UNIVERSITY OF ILLINOIS, priority 2018, dated 2022):

Tests used:
[1] = test system: purified bacterial nitroreductase; assay: Incubation with purified nitroreductase; assay type: biochemical; conditions: NADH, 37° C., 2 h
Protocol: FIG. 15. […] For the nitroreductase experiment, HyP-1 (2 μM) was incubated in the presence of nitroreductase (0.5 μg/mL) and NADH (100 μM) in 0.1 M potassium phosphate buffer (pH 7.4) at 37° C. for 2 h. For the bacterial experiment, bacteria were grown overnight, and cells were lysed via sonication. The suspension was centrifuged at 4000 rpm for 10 min, and the supernatant was removed. HyP-1 (2 μM) was incubated with cell lysate solution (1 mL) at 37° C. for 2 h.
In addition to Fe(II), the response of HyP-1 to a variety of alkali, alkaline earth and transition metals was also determined. […] To further evaluate the stability of HyP-1, a 10 μM solution of the probe was exposed to ambient light and temperature for up to 5 days. Additionally, a 10 μM solution of HyP-1 supplemented with human plasma was incubated at 37° C. for 3 hours. […] As mentioned previously, a major limitation of 2-nitroimidazole-based hypoxia probes is their susceptibility to oxygen-independent reduction via two-electron processes, such as by bacterial nitroreductases. […] Finally, the photostability of both HyP-1 and red-HyP-1 was evaluated via continuous PA image acquisition at 770 nm over the course of 1 hour.

[2] = test system: 4T1 murine mammary carcinoma cells; assay: Ratiometric fluorescence microscopy in living cells; assay type: cell-based; conditions: 4T1 cells, epifluorescence microscope Cy7/Cy5, after 6 hours
Protocol: After establishing excellent selectivity and responsiveness to hypoxic conditions in vitro, the performance of HyP-1 in living cells was evaluated before moving to in vivo studies. 4T1 murine mammary carcinoma cells were treated with a […] solution of HyP-1 and incubated at 37° C. either in a standard atmosphere containing 20% oxygen (normoxic conditions), or in an airtight chamber containing <0.1% oxygen (hypoxic conditions). Imaging was performed at 2, 4 and 6 hours using an epifluorescence microscope equipped with Cy5 and Cy7 filter sets to visualize HyP-1 and red-HyP-1, respectively (FIG. 5a).
(§1) Authenticated 4T1 cells were purchased from ATCC. Cells were grown in RPMI 1640 medium supplemented with 10% fetal bovine serum. Cells were cultured at 37° C. in 5% CO2 and 20% 02 for normoxic conditions. Hypoxic cell culture was performed by incubating cells in a sealed container with a Mitsubishi AnaeroPack™ anaerobic gas generator. Hypoxic conditions were verified with the use of a Mitsubishi RT Anaero-Indicator.
For fluorescence microscopy, cells were plated in 4-well chamber slides at an initial density of 1×10^4 cells/mL and allowed to grow until 60-80% confluent (approximately 6 days). Media was removed and cells were washed with PBS. […] Images were obtained using Cy5 and Cy7 filter cubes and analysed using ImageJ software (Version 1.50i).

[3] = test system: 4T1 cells; assay: Ratiometric fluorescence of cells, IVIS Spectrum; assay type: cell-based, murine; conditions: 4T1 cells, 5 μM HyP-1, 4 hours, IVIS Spectrum
Protocol: Ratiometric fluorescence imaging was also performed on 4T1 cells cultured in 6-well plates using an IVIS Spectrum imaging system. Cells were stained with a 5 μM solution of HyP-1 and incubated in either normoxic or hypoxic conditions for 4 hours (FIG. 5c). […] To further verify the in vitro results and determine the cellular factors responsible for HyP-1 reduction, cells were also stained with HyP-1 solutions containing either BIPY or DPI at multiple concentrations and incubated under hypoxic conditions.
as §1
For cellular imaging using the IVIS Spectrum imaging system, cells were plated in a 6-well plate at an initial density of 1.7×10^4 cells/mL and allowed to grow until 60-80% confluent (approximately 3 days). Media was removed and cells were washed with PBS. A […] solution of HyP-1 in serum-free medium was added, and cells were incubated under normoxic or hypoxic conditions for 4 hours. For BIPY and DPI experiments, the staining solution was supplemented with the compound at the appropriate concentration, and ratiometric turn-on was reported relative to a vehicle control. Images were obtained using excitation and emission filter sets of 675/720 nm and 745/800 nm. Regions of interest (ROIs) were drawn around cell-containing wells, and ratiometric signal was calculated by determining the ratio of radiant efficiency corresponding to 800 nm and 720 nm emissions.

[4] = test system: 4T1 tumour allografts; assay: In vivo fluorescence imaging of hypoxic tumour model; parameters: species or system BALB/c mice; conditions: intratumoural injection 50 μL, 100 μM; after 1 hour
Protocol: Tumour allografts were generated via subcutaneous implantation of 4T1 cells into the right flanks of BALB/c mice. The tumours were allowed to grow to volumes of 300-400 mm^3 prior to imaging. As an initial study to visualize the intratumoural conversion of HyP-1 to red-HyP-1 in real time, ratiometric fluorescence imaging was performed immediately following administration of HyP-1 (50 μL, 100 μM) via intratumoural or subcutaneous (control) injection.
All in vivo imaging experiments were performed with the approval of the Institutional Animal Care and Use Committee of the University of Illinois at Urbana-Champaign, following the principles outlined by the American Physiological Society on research animal use. Female mice (5-6 weeks old) were acquired from The Jackson Laboratory. A suspension of 0.5×10^6 cells in serum-free medium containing 50% v/v matrigel (100 μL) was subcutaneously injected into the right flank of each mouse. Tumours with volumes of 300-400 mm^3 formed after 12-15 days. […]
Images were obtained using epi-fluorescence with excitation filters of 675 and 745 and corresponding emission filters of 720 and 800, respectively. […] ROIs of equal area were drawn around signals, and the total radiant efficiency in each ROI was determined. Ratiometric signal was calculated by determining the ratio of radiant efficiency corresponding to 800 nm and 720 nm emissions.

[5] = test system: ischemic hindlimb tissue; assay: In vivo PA imaging of hindlimb ischemia model; parameters: species or system BALB/c mice; conditions: intramuscular 50 μL, 50 μM; 1 hour after injection
Protocol: After observing the hypoxia-mediated response of HyP-1 in the hindlimb ischemia model, attention was turned to detecting this response using PA imaging. As described above, surgical ligation was employed to induce ischemia, and HyP-1 (50 μL, 50 μM) was administered via intramuscular injection.
All in vivo imaging experiments were performed with the approval of the Institutional Animal Care and Use Committee of the University of Illinois at Urbana-Champaign, following the principles outlined by the American Physiological Society on research animal use. Female mice (5-6 weeks old) were acquired from The Jackson Laboratory. […] Animals that underwent unsuccessful surgery as determined by laser Doppler perfusion imaging were excluded from analysis.
Prior to imaging, hair was removed from the lower body half by shaving and treating with a topical hair removal cream. Mice were positioned on their sides such that the area to be imaged was directly above the light source. Images were acquired using the Step and Shoot mode with 120 angles and 30 pulses per angle. Data was analysed using OsiriX software. […] ROIs of equal area were drawn to include all visible signal in the image, and mean PA signal in each ROI was recorded. Change in PA signal was calculated by subtracting signal from images taken prior to injection from those at given time points.

CC[N+]([O-])(CC)c1ccc(-c2cc(-c3ccccc3)c3n2[B-](F)(F)[N+]2=C(c4ccc(OC)cc4)C=C(c4ccccc4)C2=N3)cc1 [HyP-1, 4-(5,5-difluoro-7-(4-methoxyphenyl)-1,9-diphenyl-5H-5λ^4,6λ^4-dipyrrolo[1,2-c:2′,1′-f][1,3,5,2]triazaborinin-3-yl)-N,N-diethylaniline oxide]
conversion to red-HyP-1 [1]: minimal conversion
ratiometric fluorescence response, hypoxic versus normoxic control [2]: 1.6 fold
ratiometric response, hypoxic versus normoxic wells [3]: 2.5 fold
ratiometric fluorescent turn-on, tumour tissue versus subcutaneous control [4]: 5.6 fold
PA signal enhancement, ischemic tissue versus control leg [5]: 3.1 fold
